According to PubChem BioAssay (NCI):
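96-well plates; 48 h exposure; 5 concentrations. Endpoints by linear interpolation between flanking doses. Not reached: highest tested concentration assigned. TGI marks complete inhibition of growth.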

How the values were obtained:
Test in all cases: DTP human tumour cell line panel, 48 h
SK-MEL-28 melanoma = tested on: SK-MEL-28 melanoma
CCRF-CEM leukemia = tested on: CCRF-CEM leukemia
HCC-2998 colon = tested on: HCC-2998 colon
NCI/ADR-RES ovarian = tested on: NCI/ADR-RES ovarian
A498 renal = tested on: A498 renal
OVCAR-3 ovarian = tested on: OVCAR-3 ovarian
M14 melanoma = tested on: M14 melanoma
KM12 colon = tested on: KM12 colon
HCT-15 colon = tested on: HCT-15 colon
K-562 leukemia = tested on: K-562 leukemia
ACHN renal = tested on: ACHN renal
HT29 colon = tested on: HT29 colon
BT-549 breast = tested on: BT-549 breast
HCT-116 colon = tested on: HCT-116 colon
MDA-MB-231 breast = tested on: MDA-MB-231 breast
COLO 205 colon = tested on: COLO 205 colon
SF-295 CNS = tested on: SF-295 CNS
OVCAR-8 ovarian = tested on: OVCAR-8 ovarian
CAKI-1 renal = tested on: CAKI-1 renal
786-0 renal = tested on: 786-0 renal
A549 NSCLC = tested on: A549 NSCLC
MDA-N = tested on: MDA-N
U251 CNS = tested on: U251 CNS
LOX IMVI melanoma = tested on: LOX IMVI melanoma
MOLT-4 leukemia = tested on: MOLT-4 leukemia
UO-31 renal = tested on: UO-31 renal
SNB-75 CNS = tested on: SNB-75 CNS
NCI-H23 lung = tested on: NCI-H23 lung
SK-MEL-5 melanoma = tested on: SK-MEL-5 melanoma
MALME-3M melanoma = tested on: MALME-3M melanoma
UACC-62 melanoma = tested on: UACC-62 melanoma
NCI-H522 lung = tested on: NCI-H522 lung
SK-OV-3 ovarian = tested on: SK-OV-3 ovarian
MDA-MB-435 = tested on: MDA-MB-435
SK-MEL-2 melanoma = tested on: SK-MEL-2 melanoma
NCI-H460 lung = tested on: NCI-H460 lung
SN12C renal = tested on: SN12C renal
MCF7 breast = tested on: MCF7 breast
EKVX NSCLC = tested on: EKVX NSCLC
IGROV1 ovarian = tested on: IGROV1 ovarian
OVCAR-4 ovarian = tested on: OVCAR-4 ovarian
HL-60(TB) leukemia = tested on: HL-60(TB) leukemia
T-47D breast = tested on: T-47D breast
PC-3 prostate = tested on: PC-3 prostate
OVCAR-5 ovarian = tested on: OVCAR-5 ovarian
UACC-257 melanoma = tested on: UACC-257 melanoma
RPMI-8226 leukemia = tested on: RPMI-8226 leukemia
TK-10 renal = tested on: TK-10 renal
DU-145 prostate = tested on: DU-145 prostate
SNB-19 CNS = tested on: SNB-19 CNS
HOP-92 NSCLC = tested on: HOP-92 NSCLC
SF-268 CNS = tested on: SF-268 CNS
SW-620 colon = tested on: SW-620 colon
SF-539 CNS = tested on: SF-539 CNS
NCI-H226 lung = tested on: NCI-H226 lung
HS 578T breast = tested on: HS 578T breast

## C=C1C(NC)CCC23CC24CCC2(C)C(C(C)=O)C(O)CC2(C)C4CCC13 (stereo unspecified)
SK-MEL-28 melanoma
  TGI: > 100 µM
CCRF-CEM leukemia
  TGI: > 100 µM
HCC-2998 colon
  TGI: > 100 µM
NCI/ADR-RES ovarian
  TGI: > 100 µM
A498 renal
  TGI: > 100 µM
OVCAR-3 ovarian
  TGI: > 100 µM
M14 melanoma
  TGI: > 100 µM
KM12 colon
  TGI: > 100 µM
HCT-15 colon
  TGI: > 100 µM
K-562 leukemia
  TGI: > 100 µM
ACHN renal
  TGI: > 100 µM
HT29 colon
  TGI: > 100 µM
BT-549 breast
  TGI: > 100 µM
HCT-116 colon
  TGI: > 100 µM
MDA-MB-231 breast
  TGI: > 100 µM
COLO 205 colon
  TGI: > 100 µM
SF-295 CNS
  TGI: 82.5 µM
OVCAR-8 ovarian
  TGI: > 100 µM
CAKI-1 renal
  TGI: > 100 µM
786-0 renal
  TGI: > 100 µM
A549 NSCLC
  TGI: > 100 µM
MDA-N
  TGI: > 100 µM
U251 CNS
  TGI: > 100 µM
LOX IMVI melanoma
  TGI: > 100 µM
MOLT-4 leukemia
  TGI: > 100 µM
UO-31 renal
  TGI: > 100 µM
SNB-75 CNS
  TGI: > 100 µM
NCI-H23 lung
  TGI: > 100 µM
SK-MEL-5 melanoma
  TGI: > 100 µM
MALME-3M melanoma
  TGI: > 100 µM
UACC-62 melanoma
  TGI: > 100 µM
NCI-H522 lung
  TGI: > 100 µM
SK-OV-3 ovarian
  TGI: > 100 µM
MDA-MB-435
  TGI: > 100 µM
SK-MEL-2 melanoma
  TGI: > 100 µM
NCI-H460 lung
  TGI: > 100 µM
SN12C renal
  TGI: > 100 µM
MCF7 breast
  TGI: > 100 µM
EKVX NSCLC
  TGI: > 100 µM
IGROV1 ovarian
  TGI: > 100 µM
OVCAR-4 ovarian
  TGI: > 100 µM
HL-60(TB) leukemia
  TGI: > 100 µM
T-47D breast
  TGI: > 100 µM
PC-3 prostate
  TGI: > 100 µM
OVCAR-5 ovarian
  TGI: > 100 µM
UACC-257 melanoma
  TGI: > 100 µM
RPMI-8226 leukemia
  TGI: > 100 µM
TK-10 renal
  TGI: > 100 µM
DU-145 prostate
  TGI: > 100 µM
SNB-19 CNS
  TGI: > 100 µM
HOP-92 NSCLC
  TGI: > 100 µM
SF-268 CNS
  TGI: > 100 µM
SW-620 colon
  TGI: > 100 µM
SF-539 CNS
  TGI: > 100 µM
NCI-H226 lung
  TGI: > 100 µM
HS 578T breast
  TGI: > 100 µM
